# Laboratory results from patent publication US10265294B2, “Compositions and methods for treating epithelial cancer” (YALE UNIVERSITY, priority 2016, dated 2019).
# pIC50: −log10 of the molar value.
# Experiments:
# [1] = system: i.p. tumors of mCherry+OCSC1-F2 ovarian cancer cells; experiment: Intra-peritoneal ovarian cancer xenograft, primary disease dose response; assay type: in vivo, athymic nude mice
# Protocol: The Yale University Institutional Animal Care and Use Committee approved all in vivo studies described. Intra-peritoneal tumors were established in athymic nude mice using 4×10^6 mCherry+OCSC1-F2 ovarian cancer cells (Craveiro, et al., 2013, Cancer Med. 2:751-762). […] Establishment of i.p. tumors was confirmed by live imaging (In-Vivo FX PRO, Bruker Corp., Billerica, Mass.) prior to treatment. TRX-E-002-1 was prepared in 20% Captisol or Dexsolve and administered daily at 50 mg/kg or 100 mg/kg. Paclitaxel was given at 12 mg/kg q3d and Cisplatin at 5 mg/kg weekly. All treatments were given i.p. Tumor growth was monitored q3d by live imaging and response to treatment was assessed using ROI area.
# An intra-peritoneal (i.p.) recurrent ovarian cancer xenograft model established using ovarian cancer cells stably expressing mCherry fluorescence has been established. This allows the detection of i.p. tumors and real-time measurement of response during the course of treatment. This model recapitulates the clinical profile typically seen in patients with ovarian cancer and helps one answer three questions: (1) in vivo activity of TRX-E-002-1 against primary disease; (2) ability of TRX-E-002-1 given in combination with chemotherapy to prevent/delay recurrence; and (3) ability of TRX-E-002-1 given as maintenance after chemotherapy to prevent/delay recurrence.
# To determine activity against primary disease as well as to determine the maximum tolerated dose (MTD), a dose response study was performed. […] Animals however recovered from the distension upon cessation of treatment. […] Thus, the MTD was established at daily 100 mg/kg i.p. and this dose was employed for the succeeding studies employing combination treatment.
# [2] = system: OCC1 (CD44-/MyD88- ovarian cancer cells); experiment: IC50 against chemosensitive ovarian cancer cells OCC1; assay type: cell-based, human; settings: read-out: IC50 (percentage of viable cells)
# Protocol: CD44+/MyD88+ ovarian cancer stem cell clones (OCSC1 and OCSC2) and CD44−/MyD88− ovarian cancer cells (OCC1 and OCC2) were isolated from either tumor tissue or ascites obtained from patients diagnosed with stage III/IV serous ovarian cancer and propagated (Alvero, et al., 2009, Cell Cycle 8:158-166; Chefetz, et al., 2013, Cell Cycle 12:511-521). The epithelial nature of the isolated cells was determined by immunostaining for Ck18. Purity of the cultures based on CD44 expression by flow cytometry and chemoresistance were routinely tested. […]
# (§1) Effect of each compound on cell morphology, growth, and viability was assessed using a kinetic live cell imaging system (Incucyte, Essen Bioscience). Proliferation was calculated as previously described (Alvero, et al., 2011, Mol. Cancer Ther. 10:1385-1393) using metrics from either confluence or fluorescent count from nuclear-restricted RFP or GFP. Cell death was quantified; similarly CELLTOX® Green Cytotoxicity Assay (Promega, Madison, Wis.). IC50 was calculated as described using GraphPad Prism (GraphPad Software Inc., LaJolla, Calif.).
# Once the efficacy of TRX-E-002-1 against chemoresistant OCSC was established, its activity against two clones of chemosensitive ovarian cancer cells (OCC1 and OCC2) was determined.
# [3] = system: co-culture of RFP-labeled OCSC2 and GFP-labeled OCC2; experiment: In vitro co-culture model 50% RFP-OCSC2 / 50% GFP-OCC2; assay type: cell-based; settings: co-culture 50/50; TRX-E-002-1 0.12 μM, Cisplatin 20 μM
# Protocol: (§2) CD44+/MyD88+ ovarian cancer stem cell clones (OCSC1 and OCSC2) and CD44−/MyD88− ovarian cancer cells (OCC1 and OCC2) were isolated from either tumor tissue or ascites obtained from patients diagnosed with stage III/IV serous ovarian cancer and propagated (Alvero, et al., 2009, Cell Cycle 8:158-166; Chefetz, et al., 2013, Cell Cycle 12:511-521). The epithelial nature of the isolated cells was determined by immunostaining for Ck18. Purity of the cultures based on CD44 expression by flow cytometry and chemoresistance were routinely tested. Stable expression of nuclear-restricted red fluorescent (in OCSCs) or green fluorescent proteins (in OCCs) was performed by transduction using NUCLIGHT® Red or Green Lentivirus Reagent (Essen Bioscience, Ann Arbor, Mich.). Spheroids were formed from OCSCs by culturing in ultra-low attachment multi-well plates (Corning, Inc., Corning, N.Y.).
# as §1
# Without wishing to be limited by any theory, response to chemotherapy may be modified by cross-talk among different cancer cell types within the tumor. Thus, to mimic the heterogeneity of ovarian tumors an in vitro co-culture model consisting of RFP-labeled chemoresistant OCSC2 and GFP-labeled chemosensitive OCC2 was used. The co-cultures, which are comprised of 50% RFP-OCSC2 and 50% GFP-OCC2 at time of treatment, were exposed to TRX-E-002-1, cisplatin, or the combination of both. Since GFP-OCC2 has faster doubling time than RFP-OCSC2, it overtook the control co-cultures by the end of the experiment and thus the control co-cultures are mainly comprised of GFP-OCC2 by the 24 h time-point (FIG. 2B).
# [4] = system: OCSC2 (chemoresistant CD44+/MyD88+ ovarian cancer stem cell clone); experiment: Real-time measurement of cell number/cell death and IC50, OCSC2 clone; assay type: cell-based, human; settings: OCSC2, 24 hours (FIG. 1G)
# Protocol: as §2, §1
# A panel of four different SBP subfamilies with cytotoxic activity against chemoresistant ovarian cancer stem cells were tested for efficacy in inducing ovarian cancer stem cell death. […] The efficacy of each analog was determined based on its IC50.
# TRX-E-002 exists as a racemic mixture comprised of two enantiomers, enantiomer A (TRX-E-002-1) and enantiomer B (TRX-E-002-2). Thus, the enantiomers were separated and assessed separately. […]
smiles,measurement,setting,value
"COc1cc(C2COc3c(ccc(O)c3C)C2c2ccc(O)cc2)cc(OC)c1O (single isomer, unassigned) [TRX-E-002-1]",tumor burden compared to vehicle control,"[1]; 50 mg/kg daily i.p., starting at day 14",significant reduction
same,residual disease at completion of the treatment,[1]; 100 mg/kg daily i.p.,very little residual disease
same,p-c-Jun and total c-Jun in residual tumors,"[1]; 100 mg/kg daily i.p., Western blot",upregulation
same,tumor burden compared to vehicle control,"[1]; 100 mg/kg daily i.p., starting at day 10",significant reduction
same,tumor burden,"[1]; 150 mg/kg i.p. three times weekly, by the 10th dose",significant decrease
same,pIC50,[2],7.17
same,number of GFP+ cells (GFP-OCC2),[3],markedly reduced
same,number of mCherry+ cells (RFP-OCSC2),[3],markedly reduced
same,pIC50,[4],7.33
